In ChEMBL document CHEMBL1133782, “Solid-phase synthesis of cyclic alkoxyketones, inhibitors of the cysteine protease cathepsin K” (Bioorg Med Chem Lett, 2001):

The compounds below were run against T1, Cathepsin K (Homo sapiens, UniProt P43235) (assay: Inhibitory activity against human cysteine protease, cathepsin K.).
T1 sequence (P43235 whole entry): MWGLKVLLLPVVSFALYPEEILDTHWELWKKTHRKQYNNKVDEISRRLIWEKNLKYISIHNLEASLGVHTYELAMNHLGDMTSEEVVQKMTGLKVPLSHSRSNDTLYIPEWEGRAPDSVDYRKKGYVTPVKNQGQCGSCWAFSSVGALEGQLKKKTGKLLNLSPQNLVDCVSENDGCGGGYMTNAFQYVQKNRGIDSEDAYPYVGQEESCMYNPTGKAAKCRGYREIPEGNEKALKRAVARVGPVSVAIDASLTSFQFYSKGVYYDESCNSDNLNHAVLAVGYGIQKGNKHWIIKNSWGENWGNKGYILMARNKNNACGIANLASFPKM

Ki	SMILES
640 nM	CC(C)C[C@H](NC(=O)c1cccs1)C(=O)NC1COCC1=O (some centres undefined)
> 10000 nM	CC(O)[C@H](NC(=O)c1cc2ccccc2s1)C(=O)NC1COCC1=O (some centres undefined)
> 1000 nM	CC(C)C[C@H](NC(=O)C1CCCCC1)C(=O)NC1COCC1=O (some centres undefined)
420 nM	CC(C)C[C@H](NC(=O)c1ccccn1)C(=O)NC1COCC1=O (some centres undefined)
60 nM	COCC(=O)[C@H](C)NC(=O)[C@H](CC(C)C)NC(=O)OCc1ccccc1
> 10000 nM	O=C(O)CC[C@H](NC(=O)c1cc2ccccc2s1)C(=O)NC1COCC1=O (some centres undefined)
44 nM	CC(C)C[C@H](NC(=O)c1ccc2ccccc2n1)C(=O)NC1COCC1=O (some centres undefined)
11 nM	CC(C)C[C@H](NC(=O)c1cc2ccccc2s1)C(=O)NC1COCC1=O (some centres undefined)
> 10000 nM	NC(=O)CC[C@H](NC(=O)c1cc2ccccc2s1)C(=O)NC1COCC1=O (some centres undefined)
53 nM	CC(C)C[C@H](NC(=O)c1cc2ccccc2o1)C(=O)NC1COCC1=O (some centres undefined)
820 nM	CC(C)C[C@H](NC(=O)c1ccc(F)c(F)c1)C(=O)NC1COCC1=O (some centres undefined)
> 1000 nM	CC(C)C[C@H](NC(=O)c1cccc([N+](=O)[O-])c1)C(=O)NC1COCC1=O (some centres undefined)
> 10000 nM	O=C(CNC(=O)c1cc2ccccc2s1)NC1COCC1=O (centres undefined)
180 nM	CC(C)C[C@H](NC(=O)c1ccccc1)C(=O)NC1COCC1=O (some centres undefined)
710 nM	CC(C)C[C@H](NC(=O)c1ccc(S(C)(=O)=O)cc1)C(=O)NC1COCC1=O (some centres undefined)
64 nM	CC(C)C[C@H](NC(=O)c1ccc(C(C)C)cc1)C(=O)NC1COCC1=O (some centres undefined)
> 1000 nM	CC(=O)N[C@@H](CC(C)C)C(=O)NC1COCC1=O (some centres undefined)
> 10000 nM	O=C(N[C@@H](Cc1ccccc1)C(=O)NC1COCC1=O)c1cc2ccccc2s1 (some centres undefined)
> 10000 nM	C[C@H](NC(=O)c1cc2ccccc2s1)C(=O)NC1COCC1=O (some centres undefined)
61 nM	CC(C)C[C@H](NC(=O)c1ccc2ccccc2c1)C(=O)NC1COCC1=O (some centres undefined)
15 nM	CC(C)C[C@H](NC(=O)c1ccc(C(C)(C)C)cc1)C(=O)NC1COCC1=O (some centres undefined)
190 nM	CCC[C@H](NC(=O)c1cc2ccccc2s1)C(=O)NC1COCC1=O (some centres undefined)
> 10000 nM	O=C(N[C@@H](CC1CCCCC1)C(=O)NC1COCC1=O)c1cc2ccccc2s1 (some centres undefined)
> 10000 nM	NCCCC[C@H](NC(=O)c1cc2ccccc2s1)C(=O)NC1COCC1=O (some centres undefined)
> 10000 nM	O=C(N[C@@H](Cn1ccnc1)C(=O)NC1COCC1=O)c1cc2ccccc2s1 (some centres undefined)
140 nM	CC(C)C[C@H](NC(=O)OCc1ccccc1)C(=O)NC1COCC1=O (some centres undefined)
38 nM	CC(C)C[C@H](NC(=O)c1ccc2cc[nH]c2c1)C(=O)NC1COCC1=O (some centres undefined)
19 nM	CC(C)C[C@H](NC(=O)c1ccc(-c2ccccc2)cc1)C(=O)NC1COCC1=O (some centres undefined)
> 10000 nM	CC(C)[C@H](NC(=O)c1cc2ccccc2s1)C(=O)NC1COCC1=O (some centres undefined)
